Tests used:
[1] = tested on: BV-2; assay: Antiinflammatory activity in mouse BV2 cells assessed as inhibition of LPS-induced nitric oxide production; assay type: functional, cell-based
[2] = tested on: BV-2; assay: Cytotoxicity against mouse BV2 cells at 50 uM by MTT assay; assay type: cell-based; details: bv-2, 50 µM

Compound | IC50 [1] [µM] | Activity [2]
COc1ccc(-c2coc3cc(OCC=C(C)C)ccc3c2=O)cc1 | 45.2 | Non-Toxic
CC(C)=CCOc1ccc2c(=O)c(-c3ccc4c(c3)OCO4)coc2c1 | 46.6 | Non-Toxic
COc1ccc(-c2coc3c(-c4c(OC)cc([C@@H]5OO[C@@H]5CO)cc4OC)c(O)ccc3c2=O)cc1O | 9 | Non-Toxic
COc1cc(O)c2c(=O)c(-c3cc(OC)c(O)c(O)c3CC=C(C)C)coc2c1 | 16.5 | Non-Toxic
COc1ccc(-c2coc3cc(OCC=C(C)C)ccc3c2=O)cc1OC | 36.9 | Non-Toxic
COc1ccc(-c2coc3c(OC)c(OCC=C(C)C)ccc3c2=O)cc1 | 35.7 | Non-Toxic
COc1cc(-c2coc3cc(O)ccc3c2=O)cc(O)c1-c1c(OC)cc([C@@H]2OO[C@@H]2CO)cc1OC | 19.7 | Non-Toxic
COc1ccc(-c2coc3cc(OCC=C(C)C)cc(O)c3c2=O)cc1 | > 50 | 
COc1ccc([C@@H]2COc3cc(O)ccc3C2=O)cc1 | > 50 | 
COc1cc(O)cc(-c2coc3cc(O)ccc3c2=O)c1 | > 50 | 
COc1ccc(-c2coc3cc(OCC=C(C)C)cc(O)c3c2=O)cc1OC | > 50 | 
COc1cc(O)c([C@@H]2COc3cc(O)ccc3C2=O)c(OC)c1OC | 35.8 | Non-Toxic
COc1cc(O)cc(-c2coc3cc(O)c(OC)cc3c2=O)c1 | > 50 | 
COc1ccc([C@@H]2COc3cc(O)ccc3C2=O)c(O)c1 | 39.8 | Non-Toxic
COc1ccc([C@@]2(O)COc3cc(OC)ccc3C2=O)c(O)c1 | > 50 | 
COc1cc(-c2coc3cc(O)ccc3c2=O)ccc1O | 39.8 | Non-Toxic
COc1cc(-c2coc3cc(O)ccc3c2=O)cc(OC)c1O | > 50 | 
COc1cc(-c2coc3cc(O)cc(O)c3c2=O)ccc1O [3'-O-METHYLOROBOL] | > 50 | 
COc1ccc([C@@H]2COc3cc(O)ccc3C2=O)c(OC)c1 [(3R)-SATIVANONE] | > 50 | 
COc1ccc([C@@H]2COc3cc(O)ccc3C2=O)c(OC)c1O [(3R)-VIOLANONE] | > 50 | 
O=c1c(-c2ccc(O)cc2)coc2cc(O)ccc12 [DAIDZEIN] | > 50 | 
C[C@@H]1C[C@H]2[C@@H]3CCC4=CC(=O)C=C[C@]4(C)[C@@]3(F)[C@@H](O)C[C@]2(C)[C@@]1(O)C(=O)CO [DEXAMETHASONE] | 9.5 | 
COc1cc(-c2coc3c(CC=C(C)C)c(O)c(CC=C(C)C)c(O)c3c2=O)ccc1O [FLEMINGSIN] | > 50 | 
COc1ccc(-c2coc3cc(O)ccc3c2=O)cc1 [FORMONONETIN] | > 50 | 
O=c1c(-c2ccc(O)cc2)coc2cc(O)cc(O)c12 [GENISTEIN] | 28.4 | Non-Toxic
COc1ccc(-c2coc3cc(O)cc(O)c3c2=O)cc1O [PRATENSEIN] | 26.3 | Non-Toxic
